According to the NIST ThermoML archive (doi:10.1021/je800101v):

Assays:
[1] = for surface tension liquid-gas: Ring tensiometer; for mass density: 101.33 kPa, Liquid
[2] = xn = mol fraction of the nth substance listed; details: Ring tensiometer

CCCCCCO [hexan-1-ol]
[1], 298.15 K
Details	mass density [kg/m3]	surface tension liquid-gas [mN/m]
–	815.02	25.69

OCCO [1,2-ethanediol] + CCCCCCO
[2], x2 = 0
Details	surface tension liquid-gas [mN/m]
298.15 K	47.79
303.15 K	47.57
308.15 K	47.25
313.15 K	47.1
318.15 K	46.4

CCCCCCCO [heptan-1-ol]
Details	surface tension liquid-gas [mN/m]
[1], 298.15 K	26.38

Details	mass density [kg/m3]
[1], 298.15 K, Vibrating tube method	818.11

CCCCCCO [hexan-1-ol] + OCCO
surface tension liquid-gas [mN/m], [2]
Details	298.15 K	303.15 K	308.15 K	313.15 K	318.15 K
x1 = 0.0429	32.5	32.81	32.68	31.55	31.38
x1 = 0.1009	29.07	29.49	29.34	29.27	28.97
x1 = 0.2761	28	27.47	27.31	27.15	26.91
x1 = 0.3098	27.9	27.32	27.19	27.02	26.8
x1 = 0.35	27.38	27.12	26.98	26.81	26.63
x1 = 0.3942	27.32	26.98	26.83	26.68	26.47
x1 = 0.4468	27.24	26.78	26.63	26.47	26.31
x1 = 0.5079	27.03	26.48	26.35	26.17	25.97
x1 = 0.5405	26.82	26.38	26.25	26.07	25.88
x1 = 0.6061	26.71	26.17	26.01	25.85	25.67
x1 = 0.6452	26.62	25.97	25.78	25.65	25.48
x1 = 0.6897	26.51	25.75	25.58	25.38	25.21
x1 = 0.7407	26.43	25.48	25.3	25.16	24.99
x1 = 0.8	26.34	25.38	25.19	25.02	24.81
x1 = 0.8333	26.28	25.25	25.17	24.98	24.75
x1 = 0.9091	26.22	25.16	24.97	24.78	24.56
x1 = 0.9524	26.16	25.02	24.81	24.61	24.45

CCCCCO [pentan-1-ol]
[1], 298.15 K
Details	mass density [kg/m3]	surface tension liquid-gas [mN/m]
–	811.1	24.89

OCCO [1,2-ethanediol]
[1]
Details	surface tension liquid-gas [mN/m]
298.15 K	47.79
303.15 K	47.57
308.15 K	47.25
313.15 K	47.1
318.15 K	46.4
